{"source": "ChEMBL document CHEMBL1201862", "about": "“PubChem BioAssay data set” (2004)", "key": {"[1]": {"target": "Fructose-bisphosphate aldolase (Mycobacterium tuberculosis, UniProt P9WQA3)", "sequence (P9WQA3 whole entry)": "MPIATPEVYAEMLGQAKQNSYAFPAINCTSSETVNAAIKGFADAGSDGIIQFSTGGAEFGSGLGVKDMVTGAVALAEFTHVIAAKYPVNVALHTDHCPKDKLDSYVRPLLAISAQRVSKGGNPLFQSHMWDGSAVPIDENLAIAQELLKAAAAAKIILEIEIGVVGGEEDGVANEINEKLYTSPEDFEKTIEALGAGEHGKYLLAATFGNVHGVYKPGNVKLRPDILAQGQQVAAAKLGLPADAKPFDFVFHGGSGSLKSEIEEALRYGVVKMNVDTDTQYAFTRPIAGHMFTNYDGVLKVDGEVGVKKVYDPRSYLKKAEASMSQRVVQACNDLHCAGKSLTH", "assay": "Fluorescence-based biochemical high throughput dose response assay for inhibitors of the fructose-bisphosphate aldolase (FBA) of M. tuberculosis.", "format": "functional"}, "[2]": {"target": "T1, Polyadenylate-binding protein 1 (Homo sapiens, UniProt P11940)", "T1 sequence (P11940 whole entry)": "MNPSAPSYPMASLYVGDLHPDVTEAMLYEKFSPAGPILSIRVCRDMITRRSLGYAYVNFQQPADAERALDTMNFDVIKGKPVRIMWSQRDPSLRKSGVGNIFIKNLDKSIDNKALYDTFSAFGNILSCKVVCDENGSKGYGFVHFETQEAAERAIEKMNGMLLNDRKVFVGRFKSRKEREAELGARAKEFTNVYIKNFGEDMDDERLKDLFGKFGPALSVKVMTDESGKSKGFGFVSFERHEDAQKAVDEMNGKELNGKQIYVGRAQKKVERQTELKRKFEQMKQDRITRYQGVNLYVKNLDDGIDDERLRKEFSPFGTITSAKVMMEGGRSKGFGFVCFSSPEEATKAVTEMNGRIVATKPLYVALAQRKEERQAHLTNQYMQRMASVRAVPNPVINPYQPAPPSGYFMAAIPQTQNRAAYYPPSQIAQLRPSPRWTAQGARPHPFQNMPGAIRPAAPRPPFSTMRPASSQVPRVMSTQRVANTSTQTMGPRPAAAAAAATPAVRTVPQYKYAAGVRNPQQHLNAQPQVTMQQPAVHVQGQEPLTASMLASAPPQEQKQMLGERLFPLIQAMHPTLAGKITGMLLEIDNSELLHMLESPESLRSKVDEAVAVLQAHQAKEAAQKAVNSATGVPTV", "assay": "PABP1 MLLE–PAM2 binding inhibitor potency, dose response, biochemical, fluorescence polarization, FITC-PAM2 peptide (AID 602259)", "format": "functional", "settings": "read-out: IC50_Mean"}, "[3]": {"target": "T1, Polyadenylate-binding protein 1", "assay": "PABP1 MLLE–PAM2 interaction inhibitors, dose response, miRNA deadenylation inhibitor project, biochemical, fluorescence polarization, Cy5-PAM2 peptide, secondary (AID 602260)", "format": "functional", "settings": "read-out: IC50_Mean"}, "Prothrombin": {"target": "Prothrombin (Homo sapiens, UniProt P00734)", "assay": "Thrombin 1536 HTS Dose Response Confirmation. [Related pubchem assays: 1046 (Thrombin 1536 HTS; hits were confirmed in this assay)]", "format": "functional"}, "[4]": {"assay": "A cytotoxicity screen of small molecule inhibitors of the PhoP region in Salmonella typhi identified in the primary screen. [Related pubchem assays: 1850, 1864, 1985 ]", "format": "functional"}, "[5]": {"assay": "HEK293T cell cytotoxicity, dose response, cytotoxicity control for HIV Vif inhibitor project, cherry-picks (AID 652208)", "format": "functional, cell-based"}, "[6]": {"assay": "cytotoxicity in COV362 ovarian cancer cells, dose response, cytotoxicity control for PAX8 inhibitor project, cell-based, plate reader, dry powder, SA12 (AID 743144)", "format": "functional"}, "Paired box protein Pax-8": {"target": "Paired box protein Pax-8 (Homo sapiens, UniProt Q06710)", "sequence (Q06710 whole entry)": "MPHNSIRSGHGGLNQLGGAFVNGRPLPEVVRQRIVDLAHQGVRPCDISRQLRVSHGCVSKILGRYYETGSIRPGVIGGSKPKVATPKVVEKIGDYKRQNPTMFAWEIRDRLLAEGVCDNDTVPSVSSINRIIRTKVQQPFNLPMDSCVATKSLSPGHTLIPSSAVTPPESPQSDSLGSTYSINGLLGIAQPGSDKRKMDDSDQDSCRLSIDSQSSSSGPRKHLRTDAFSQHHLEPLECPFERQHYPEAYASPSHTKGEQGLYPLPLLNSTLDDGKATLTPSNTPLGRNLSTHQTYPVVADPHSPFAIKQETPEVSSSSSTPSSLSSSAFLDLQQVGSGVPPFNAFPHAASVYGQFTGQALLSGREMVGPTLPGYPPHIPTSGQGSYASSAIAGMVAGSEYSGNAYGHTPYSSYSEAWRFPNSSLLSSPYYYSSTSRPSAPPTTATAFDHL", "assay": "inhibitors of PAX8-driven TPO luciferase reporter, dose response, RMG-I cells, cherry-pick (AID 687027);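 also: luciferase reporter driven by Pax8 target thyroperoxidase promoter measured by SteadyGlo luminescence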", "format": "functional, cell-based"}, "[7]": {"assay": "PAX2 cell-based inhibition, dose response, selectivity assay for PAX8 inhibitor project, plate reader, dry powder samples (AID 743048);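 also: HEK293 cells carrying a WT1 promoter luciferase reporter driven by expressed Pax2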", "format": "functional"}, "[8]": {"assay": "PAX5 activity inhibitors, dose response, selectivity assay for PAX8 inhibitor project, cell-based, plate reader, dry powder samples (AID 743047);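 also: HEK293 cells carrying a Pax5 driven CD19 promoter luciferase reporter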", "format": "functional"}, "[9]": {"assay": "NIH:OVCAR-3 ovarian cancer cell cytotoxicity, dose response, PAX8 inhibitor project, plate reader, dry powder samples (AID 743044)", "format": "functional, cell-based"}, "[10]": {"assay": "cytotoxicity in COV434 cells, dose response, cytotoxicity control for PAX8 inhibitor project, cell-based, plate reader, dry powder, SA7 (AID 743145)", "format": "functional"}, "[11]": {"assay": "cytotoxicity dependent on PAX8, dose response, cell-based, plate reader, dry powder (AID 743049)", "format": "functional"}, "[12]": {"assay": "cytotoxicity in OV-90 ovarian cancer cells, dose response, PAX8 inhibitor project, cell-based, plate reader, dry powder, SA8 (AID 743149)", "format": "functional"}, "[13]": {"assay": "IGROV1 ovarian cancer cell cytotoxicity, dose response, PAX8 inhibitor project, plate reader, dry powder samples (AID 743043)", "format": "functional, cell-based", "settings": "IGROV-1"}, "Protein S100-A4": {"target": "Protein S100-A4 (Homo sapiens, UniProt P26447)", "sequence (P26447 whole entry)": "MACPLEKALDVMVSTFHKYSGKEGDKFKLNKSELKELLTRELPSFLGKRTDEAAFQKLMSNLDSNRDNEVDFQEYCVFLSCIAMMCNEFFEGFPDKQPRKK", "assay": "S100A4-myosin IIA binding inhibitor potency, dose response, biochemical, fluorescence polarization, cherry-picked hits (AID 687001)", "format": "functional"}, "Nonstructural protein 1": {"target": "Nonstructural protein 1 (Influenza A virus, UniProt Q194T2)", "sequence (Q194T2 whole entry)": "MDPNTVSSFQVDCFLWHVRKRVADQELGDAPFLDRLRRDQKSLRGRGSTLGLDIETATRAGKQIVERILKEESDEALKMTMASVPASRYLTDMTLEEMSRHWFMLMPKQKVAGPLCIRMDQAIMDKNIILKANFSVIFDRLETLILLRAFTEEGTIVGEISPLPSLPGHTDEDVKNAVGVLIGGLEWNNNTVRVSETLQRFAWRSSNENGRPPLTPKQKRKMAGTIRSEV", "format": "functional, Influenza A virus (A/California/07/2009(H1N1))"}, "[14]": {"assay": "control 3'UTR Renilla luciferase suppression, dose response, counter-screen for Shn3 inhibitor project, cell-based, Clone20-Shn3RL, cherry-picked (AID 624133)", "format": "functional"}, "[15]": {"assay": "inhibitors of intracellular T. cruzi replication, confirmation, NIH3T3 host cells, beta-gal luminescence (AID 2044);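 also: luminescent beta-galactosidase reporter signal from transgenic T. cruzi replicating inside host cells; inhibitors lower the luminescence signal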", "format": "functional, cell-based"}, "INS1": {"test_system": "INS1", "assay": "beta cell apoptosis inhibitors, cytokine rescue, dose response, luminescence, retest (AID 449756);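 also: cell death triggered by IL-1 beta plus TNF-alpha plus IFN-gamma mixture; protective hits raise ATP signal compared with cytokine alone wells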", "format": "functional, cell-based", "settings": "Rattus norvegicus"}, "[16]": {"assay": "Shn3 3'UTR reporter inhibitors, dose response, cell-based, Clone20 osteoblasts, firefly luciferase, cherry-picked (AID 624132)", "format": "functional"}, "[17]": {"assay": "HepG2 cell cytotoxicity, dose response, cytotoxicity control for Shn3 inhibitor project, CellTiter-Glo, cherry-picked (AID 624134)", "format": "functional, cell-based"}, "[18]": {"assay": "cytotoxicity toward NIH3T3 fibroblasts, dose response, counter-screen, cell-based, ATP luminescence, mouse fibroblasts (AID 2010);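 also: cells exposed to compound for about 90 hours before reading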", "format": "functional"}, "[19]": {"target": "Long-chain-fatty-acid--AMP ligase FadD28 (Mycobacterium tuberculosis, UniProt P9WQ59)", "sequence (P9WQ59 whole entry)": "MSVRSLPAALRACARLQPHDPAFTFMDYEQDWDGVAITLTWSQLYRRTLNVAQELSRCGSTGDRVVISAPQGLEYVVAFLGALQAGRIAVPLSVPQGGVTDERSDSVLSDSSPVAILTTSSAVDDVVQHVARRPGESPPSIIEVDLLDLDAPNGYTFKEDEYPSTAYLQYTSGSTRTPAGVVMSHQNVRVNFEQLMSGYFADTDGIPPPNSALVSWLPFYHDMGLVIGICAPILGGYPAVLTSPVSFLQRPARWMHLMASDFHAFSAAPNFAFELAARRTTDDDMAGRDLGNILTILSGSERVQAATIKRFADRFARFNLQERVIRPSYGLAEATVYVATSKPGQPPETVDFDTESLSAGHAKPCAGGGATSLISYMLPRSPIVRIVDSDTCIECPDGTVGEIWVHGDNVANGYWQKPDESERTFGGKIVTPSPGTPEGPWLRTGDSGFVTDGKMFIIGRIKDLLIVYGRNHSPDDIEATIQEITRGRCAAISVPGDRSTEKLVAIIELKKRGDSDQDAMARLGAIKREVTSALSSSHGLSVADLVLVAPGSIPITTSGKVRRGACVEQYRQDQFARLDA", "assay": "Fluorescence polarization aasay to screen for inhibitors that compete for the binding of FadD28 to a bisubstrate Measured in Biochemical System Using Plate Reader - 2147-01_Inhibitor_Dose_CherryPick_Activity.", "format": "functional, Mycobacterium tuberculosis H37Rv"}, "[20]": {"target": "Disintegrin and metalloproteinase domain-containing protein 17 (Homo sapiens, UniProt P78536)", "sequence (P78536 whole entry, the tested form may be a part)": "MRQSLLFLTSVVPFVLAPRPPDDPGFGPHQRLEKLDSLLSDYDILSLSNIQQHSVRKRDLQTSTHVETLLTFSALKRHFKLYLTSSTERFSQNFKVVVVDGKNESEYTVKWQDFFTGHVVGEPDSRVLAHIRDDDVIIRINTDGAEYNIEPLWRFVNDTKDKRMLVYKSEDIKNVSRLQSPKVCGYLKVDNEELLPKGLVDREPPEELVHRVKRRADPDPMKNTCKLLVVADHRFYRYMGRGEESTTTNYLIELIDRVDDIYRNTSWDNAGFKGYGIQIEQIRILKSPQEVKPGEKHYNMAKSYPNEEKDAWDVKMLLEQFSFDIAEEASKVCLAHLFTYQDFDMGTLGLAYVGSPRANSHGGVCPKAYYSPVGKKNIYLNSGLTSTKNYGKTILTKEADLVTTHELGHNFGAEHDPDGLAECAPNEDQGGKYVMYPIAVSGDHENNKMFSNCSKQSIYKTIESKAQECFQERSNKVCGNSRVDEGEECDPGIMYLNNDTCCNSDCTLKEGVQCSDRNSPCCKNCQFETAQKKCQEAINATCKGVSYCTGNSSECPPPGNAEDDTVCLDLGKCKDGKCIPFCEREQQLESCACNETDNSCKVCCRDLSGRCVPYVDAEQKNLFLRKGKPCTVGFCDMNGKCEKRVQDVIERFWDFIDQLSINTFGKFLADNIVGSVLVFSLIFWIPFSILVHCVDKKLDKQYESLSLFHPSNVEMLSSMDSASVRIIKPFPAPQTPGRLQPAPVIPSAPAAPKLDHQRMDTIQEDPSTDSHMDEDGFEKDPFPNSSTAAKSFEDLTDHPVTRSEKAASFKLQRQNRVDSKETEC", "assay": "exosite inhibitors of ADAM17, dose response, biochemical (AID 743260)"}, "[21]": {"assay": "ADAM10 protease inhibitors, dose response, selectivity assay for ADAM17 exosite inhibitor project, biochemical, FRET peptide substrate, recombinant human ADAM10 (AID 743259);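 also: ADAM10 enzyme cleaving a FRET peptide substrate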"}, "[22]": {"assay": "HEK293 Cytotoxicity Assay Measured in Cell-Based System Using Plate Reader - 7071-01_Inhibitor_Dose_CherryPick_Activity_Set2.", "format": "functional"}, "HEK293": {"test_system": "HEK293", "assay": "HEK293T cell cytotoxicity, dose response, cytotoxicity control, ATP luminescence, cherry-pick samples (AID 687005);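 also: cells exposed to compound for 48 hours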", "format": "functional, cell-based", "settings": "Homo sapiens"}, "[23]": {"assay": "HeLa cell cytotoxicity, dose response, cytotoxicity control for MgcRacGAP inhibitor project (AID 624300)", "format": "functional"}, "[24]": {"target": "T2, Rac GTPase-activating protein 1 (Homo sapiens, UniProt Q9H0H5)", "T2 sequence (Q9H0H5 whole entry)": "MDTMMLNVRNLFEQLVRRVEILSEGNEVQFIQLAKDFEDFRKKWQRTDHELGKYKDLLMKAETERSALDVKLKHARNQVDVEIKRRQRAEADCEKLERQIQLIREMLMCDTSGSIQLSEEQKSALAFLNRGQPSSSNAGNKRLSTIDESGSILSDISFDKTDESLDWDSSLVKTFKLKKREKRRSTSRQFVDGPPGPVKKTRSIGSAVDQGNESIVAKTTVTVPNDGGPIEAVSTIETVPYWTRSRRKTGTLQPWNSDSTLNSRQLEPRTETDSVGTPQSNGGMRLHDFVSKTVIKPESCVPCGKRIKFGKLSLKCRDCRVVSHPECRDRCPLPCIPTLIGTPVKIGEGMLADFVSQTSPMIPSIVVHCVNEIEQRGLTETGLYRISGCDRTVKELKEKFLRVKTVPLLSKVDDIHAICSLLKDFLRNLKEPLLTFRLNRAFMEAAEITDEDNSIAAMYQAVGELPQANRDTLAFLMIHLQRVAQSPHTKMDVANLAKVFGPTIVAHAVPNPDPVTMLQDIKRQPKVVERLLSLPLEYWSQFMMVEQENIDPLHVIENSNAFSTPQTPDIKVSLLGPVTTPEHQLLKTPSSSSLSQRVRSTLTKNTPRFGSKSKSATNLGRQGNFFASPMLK", "assay": "MgcRacGAP GTPase-activating activity inhibitors, confirmation, biochemical, ADP Hunter fluorescence, primary and confirmatory (AID 624330)", "format": "functional"}, "[25]": {"assay": "NIH-3T3 fibroblast cytotoxicity, dose response, cytotoxicity control, cell-based, fluorescence, Alamar Blue, secondary assay (AID 2327);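 also: NIH-3T3 mouse fibroblasts cultured with fluconazole at 8 µg/mL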", "format": "functional"}, "[26]": {"assay": "C. albicans growth with fluconazole, confirmation, fluorescence, retest (AID 2467)", "format": "functional, cell-based"}, "[27]": {"assay": "HepG2 cell cytotoxicity, dose response, cytotoxicity control, ATP luminescence, cherry-pick, set 6 (AID 1053125)", "format": "functional, cell-based"}, "cells [28]": {"assay": "cells", "settings": "A549"}, "cells [29]": {"assay": "cells", "settings": "HEK293"}, "[30]": {"assay": "Counterscreen for activators of the function of SWI/SNF related, matrix associated, actin dependent regulator of chromatin, subfamily a, member 2 (SMARCA2, BRM): Luminescence-based cell-based high throughput dose response assay to identify non-selective compounds using the VP16 reporter assay.", "format": "functional"}, "[31]": {"target": "SWI/SNF-related matrix-associated actin-dependent regulator of chromatin subfamily A member 2 (Homo sapiens, UniProt P51531)", "sequence (P51531 whole entry)": "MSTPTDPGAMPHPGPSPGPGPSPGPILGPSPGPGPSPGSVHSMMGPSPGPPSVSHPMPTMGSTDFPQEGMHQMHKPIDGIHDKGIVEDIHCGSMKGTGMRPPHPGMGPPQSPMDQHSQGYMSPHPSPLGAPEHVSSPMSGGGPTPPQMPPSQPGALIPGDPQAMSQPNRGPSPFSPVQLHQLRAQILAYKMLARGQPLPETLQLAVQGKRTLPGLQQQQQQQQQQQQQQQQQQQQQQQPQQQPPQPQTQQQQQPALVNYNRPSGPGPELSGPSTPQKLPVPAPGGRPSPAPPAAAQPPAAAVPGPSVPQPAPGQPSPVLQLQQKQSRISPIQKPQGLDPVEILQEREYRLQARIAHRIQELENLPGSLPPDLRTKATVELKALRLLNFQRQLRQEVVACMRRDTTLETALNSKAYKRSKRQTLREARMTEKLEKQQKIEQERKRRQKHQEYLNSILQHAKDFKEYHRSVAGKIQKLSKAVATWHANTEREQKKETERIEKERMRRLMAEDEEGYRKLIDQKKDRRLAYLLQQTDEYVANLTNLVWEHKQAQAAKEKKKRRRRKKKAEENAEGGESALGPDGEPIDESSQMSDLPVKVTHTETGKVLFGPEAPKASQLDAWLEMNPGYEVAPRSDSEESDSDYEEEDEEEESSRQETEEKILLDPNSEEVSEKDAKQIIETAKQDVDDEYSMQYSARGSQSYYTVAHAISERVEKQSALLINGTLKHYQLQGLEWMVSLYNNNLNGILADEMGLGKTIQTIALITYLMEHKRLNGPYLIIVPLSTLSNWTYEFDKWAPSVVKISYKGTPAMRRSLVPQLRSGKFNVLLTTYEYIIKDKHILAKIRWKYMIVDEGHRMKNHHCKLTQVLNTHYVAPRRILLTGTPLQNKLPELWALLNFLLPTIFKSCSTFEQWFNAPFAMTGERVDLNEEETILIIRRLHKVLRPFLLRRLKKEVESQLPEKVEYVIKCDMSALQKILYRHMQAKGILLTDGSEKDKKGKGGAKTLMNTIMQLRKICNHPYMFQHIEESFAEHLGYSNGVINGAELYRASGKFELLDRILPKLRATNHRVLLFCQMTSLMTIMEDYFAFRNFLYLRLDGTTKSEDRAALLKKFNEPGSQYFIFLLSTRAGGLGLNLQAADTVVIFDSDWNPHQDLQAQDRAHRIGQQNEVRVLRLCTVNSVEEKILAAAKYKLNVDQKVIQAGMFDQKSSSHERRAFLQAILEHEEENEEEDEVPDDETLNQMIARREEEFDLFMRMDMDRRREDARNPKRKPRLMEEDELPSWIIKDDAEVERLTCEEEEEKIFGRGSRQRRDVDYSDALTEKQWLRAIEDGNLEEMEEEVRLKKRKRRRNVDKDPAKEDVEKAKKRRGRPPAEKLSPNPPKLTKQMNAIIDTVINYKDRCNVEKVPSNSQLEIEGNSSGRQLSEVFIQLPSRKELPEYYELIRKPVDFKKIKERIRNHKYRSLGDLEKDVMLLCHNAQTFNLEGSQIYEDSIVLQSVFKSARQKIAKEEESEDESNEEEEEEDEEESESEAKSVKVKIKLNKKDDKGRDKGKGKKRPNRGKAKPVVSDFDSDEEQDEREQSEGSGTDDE", "assay": "Luminescence-based cell-based high throughput dose response assay to identify activators of the function of SWI/SNF related, matrix associated, actin dependent regulator of chromatin, subfamily a, member 2 (SMARCA2, BRM).", "format": "functional"}}, "note": "Active and inactive are the calls of the source.", "data": [{"smiles": "O=C(CSc1nc2ccccc2o1)c1cc2ccccc2oc1=O", "values": [{"measurement": "IC50", "setting": "[1]", "value": "> 10 µM (inactive)"}, {"measurement": "IC50", "setting": "[2]", "value": "> 66 µM (inactive)"}, {"measurement": "IC50", "setting": "[3]", "value": "> 66 µM (inactive)"}, {"measurement": "IC50", "setting": "Prothrombin", "value": "> 50 µM (inconclusive)"}, {"measurement": "EC50", "setting": "[4]", "value": "> 50 µM (active)"}]}, {"smiles": "COC(=O)c1ccc(NCc2cc(O)ccc2O)cc1O", "values": [{"measurement": "AC50", "setting": "[5]", "value": "26.3 µM (active)"}]}, {"smiles": "Cc1nc2sc(C(c3ccco3)N3CCN(C(c4ccccc4)c4ccccc4)CC3)c(O)n2n1", "note": "(stereo not drawn)", "values": [{"measurement": "AC50", "setting": "[6]", "value": "69 µM (active)"}, {"measurement": "AC50", "setting": "Paired box protein Pax-8", "value": "5.25 µM (active)"}, {"measurement": "AC50", "setting": "[7]", "value": "62.5 µM (active)"}, {"measurement": "AC50", "setting": "[8]", "value": "> 100 µM (inactive)"}, {"measurement": "AC50", "setting": "[9]", "value": "40.9 µM (active)"}, {"measurement": "AC50", "setting": "[10]", "value": "45.6 µM (active)"}, {"measurement": "AC50", "setting": "[11]", "value": "8.59 µM (active)"}, {"measurement": "AC50", "setting": "[12]", "value": "47 µM (active)"}, {"measurement": "AC50", "setting": "[13]", "value": "17 µM (active)"}]}, {"smiles": "CN1/C(=C\\C=C2/SC(=S)NC2=O)C(C)(C)c2ccccc21", "values": [{"measurement": "AC50", "setting": "Protein S100-A4", "value": "0.819 µM (active)"}, {"measurement": "IC50", "setting": "Nonstructural protein 1", "value": "38.8 µM (active)"}, {"measurement": "AC50", "setting": "[14]", "value": "1.42 µM (active)"}, {"measurement": "EC50", "setting": "[15]", "value": "0.981 µM (active)"}, {"measurement": "AC50", "setting": "INS1", "value": "2.87 µM (active)"}, {"measurement": "AC50", "setting": "[16]", "value": "2.6 µM (active)"}, {"measurement": "AC50", "setting": "[17]", "value": "38.6 µM (active)"}, {"measurement": "EC50", "setting": "[18]", "value": "7.49 µM (active)"}]}, {"smiles": "CCc1cccc2c(C(=O)CSc3nncn3-c3ccc(OC)cc3)c[nH]c12", "values": [{"measurement": "AC50", "setting": "[19]", "value": "> 100 µM (inactive)"}]}, {"smiles": "Cc1cc(C)n(CCc2nc(-c3ccc(C(C)(C)C)cc3)cs2)n1", "values": [{"measurement": "IC50", "setting": "[20]", "value": "> 69.5 µM (inactive)"}, {"measurement": "IC50", "setting": "[21]", "value": "36.5 µM (inactive)"}]}, {"smiles": "Cc1cccc(C)c1NC(=O)C1CCCN1C(=O)OC(C)(C)C", "note": "(stereo not drawn)", "values": [{"measurement": "AC50", "setting": "[22]", "value": "50.8 µM (active)"}, {"measurement": "AC50", "setting": "HEK293", "value": "50.8 µM (active)"}]}, {"smiles": "COc1cc(/C=C(\\C#N)c2nc3ccccc3[nH]2)ccc1O", "values": [{"measurement": "CC50", "setting": "[23]", "value": "99.9 µM (active)"}, {"measurement": "IC50", "setting": "[24]", "value": "15.9 µM (active)"}, {"measurement": "EC50", "setting": "[25]", "value": "49.9 µM (active)"}, {"measurement": "EC50", "setting": "[26]", "value": "1.41 µM (active)"}]}, {"smiles": "O=C(NCc1cc(C(F)(F)F)ccc1Cl)c1cccc2c1C(=O)c1ccc(Cl)cc1S2(=O)=O", "values": [{"measurement": "AC50", "setting": "[27]", "value": "> 52 µM (inactive)"}, {"measurement": "AC50", "setting": "cells [28]", "value": "37.6 µM (active)"}, {"measurement": "AC50", "setting": "cells [29]", "value": "> 52 µM (inactive)"}]}, {"smiles": "Nc1ccc2c(c1)C(=O)c1cc(N)c(Cl)cc1-2", "values": [{"measurement": "IC50", "setting": "[24]", "value": "22.1 µM (active)"}, {"measurement": "EC50", "setting": "[30]", "value": "> 91.2 µM (inactive)"}, {"measurement": "EC50", "setting": "[31]", "value": "> 91.2 µM (inactive)"}]}]}
